Source: the supplement of paper PMC13380429

Tests used:
Details in all cases: 72 h
[1] = tested on: Caco-2; experiment: cell viability relative to DMSO; higher = less toxic
[2] = tested on: Calu-3; experiment: as above
[3] = tested on: HepG2; experiment: as above
[4] = tested on: U2OS; experiment: as above
[5] = tested on: Vero E6; experiment: as above
[6] = tested on: Caco-2; experiment: relative viability EC50 (midpoint between 100% and the lowest measured viability); higher = less toxic
[7] = tested on: Calu-3; experiment: as above
[8] = tested on: HepG2; experiment: as above
[9] = tested on: U2OS; experiment: as above
[10] = tested on: Vero E6; experiment: as above
[11] = tested on: Caco-2; experiment: drug sensitivity score (DSS) for viability; higher = more toxic; extreme values may be limits of the assay
[12] = tested on: Calu-3; experiment: as above
[13] = tested on: HepG2; experiment: as above
[14] = tested on: U2OS; experiment: as above
[15] = tested on: Vero E6; experiment: as above

Row | SMILES | cell viability ([1]; 1 nM) [%] | cell viability ([1]; 10 nM) [%] | cell viability ([1]; 100 nM) [%] | cell viability ([1]; 1000 nM) [%] | cell viability ([1]; 10000 nM) [%] | cell viability ([2]; 1 nM) [%] | cell viability ([2]; 10 nM) [%] | cell viability ([2]; 100 nM) [%] | cell viability ([2]; 1000 nM) [%] | cell viability ([2]; 10000 nM) [%] | cell viability ([3]; 1 nM) [%] | cell viability ([3]; 10 nM) [%] | cell viability ([3]; 100 nM) [%] | cell viability ([3]; 1000 nM) [%] | cell viability ([3]; 10000 nM) [%] | cell viability ([4]; 1 nM) [%] | cell viability ([4]; 10 nM) [%] | cell viability ([4]; 100 nM) [%] | cell viability ([4]; 1000 nM) [%] | cell viability ([4]; 10000 nM) [%] | cell viability ([5]; 1 nM) [%] | cell viability ([5]; 10 nM) [%] | cell viability ([5]; 100 nM) [%] | cell viability ([5]; 1000 nM) [%] | cell viability ([5]; 10000 nM) [%] | relative viability EC50 [6] [µM] | relative viability EC50 [7] [µM] | relative viability EC50 [8] [µM] | relative viability EC50 [9] [µM] | relative viability EC50 [10] [µM] | drug sensitivity score [11] | drug sensitivity score [12] | drug sensitivity score [13] | drug sensitivity score [14] | drug sensitivity score [15]
1 | Cc1oc(=O)oc1CN1CCN(c2cc3c(cc2F)c(=O)c(C(=O)O)c2n3C(C)S2)CC1 (stereo not given) [prulifloxacin] | 94.8 | 91.6 | 120 | 103 | 97.8 | 104 | 95.8 | 99.4 | 96.2 | 97.3 | 107 | 112 | 110 | 106 | 97.2 | 95.8 | 99.8 | 100 | 95.7 | 100 | 102 | 111 | 115 | 94.5 | 97.3 | > 10 | > 10 | > 10 | > 10 | > 10 | 0 | 0 | 0 | 0 | 0
2 | CNC(=N)NC(=O)Nc1c(C)cccc1C [lidamidine] | 90.4 | 99 | 91.9 | 95.3 | 92.5 | 103 | 102 | 96.2 | 88.7 | 104 | 101 | 89.3 | 106 | 104 | 108 | 98.6 | 100 | 97.7 | 99.5 | 100 | 99.6 | 96 | 97.7 | 102 | 105 | > 10 | > 10 | > 10 | > 10 | > 10 | 0 | 0 | 0 | 0 | 0
3 | Cc1ccc([N+](=O)[O-])cc1S(=O)(=O)N(C)/N=C/c1cnc2ccc(Br)cn12 [PIK-75] | 98.8 | 90.3 | 57.9 | 28.4 | 33.3 | 102 | 103 | 52.6 | 35.6 | 46.7 | 97.9 | 84.7 | 26 | 11.1 | 10.6 | 98.6 | 96.6 | 53.8 | 4.2 | 0.8 | 105 | 101 | 69.7 | 0.7 | 5.3 | 0.0669 | 0.0668 | 0.0317 | 0.109 | 0.139 | 18.3 | 17.4 | 26.8 | 23 | 22.3
4 | CNC(=O)c1nn(C)c2c1C(C)(C)Cc1cnc(Nc3ccc(N4CCN(C)CC4)cc3)nc1-2 | 98.1 | 92.2 | 90.3 | 53 | 28.9 | 95.1 | 100 | 89 | 67.9 | 22.1 | 89.9 | 102 | 75.7 | 37.7 | 16.5 | 99.7 | 93.6 | 97.3 | 47.4 | 3.6 | 91.9 | 96.1 | 85 | 31.2 | 6.4 | 0.518 | 1.2 | 0.288 | 0.898 | 0.409 | 10.2 | 7.9 | 14.5 | 11.6 | 14.8
5 | O=C1Nc2ccc(Cl)cc2[C@@](C#CC2CC2)(C(F)(F)F)O1 [efavirenz] | 95.7 | 96.3 | 83.3 | 96.3 | 124 | 97.5 | 107 | 93.8 | 97.7 | 114 | 92.1 | 86.1 | 95.9 | 83.4 | 94.6 | 99.2 | 96.3 | 98.4 | 106 | 94.5 | 98.4 | 93.5 | 91.4 | 90 | 101 | > 10 | > 10 | > 10 | > 10 | > 10 | 0 | 0 | 0 | 0 | 0
6 | O=C(CCBr)N1CC[N+]2(CC1)CC[N+]1(CCN(C(=O)CCBr)CC1)CC2 [spirobromin] | 103 | 87 | 94.2 | 109 | 108 | 110 | 100 | 94.7 | 110 | 100 | 91.7 | 91.5 | 96.6 | 106 | 96.4 | 96.4 | 95.2 | 97.3 | 99.4 | 97.7 | 91.2 | 101 | 96.4 | 91.5 | 106 | > 10 | > 10 | > 10 | > 10 | > 10 | 0 | 0 | 0 | 0 | 0
7 | O=C(O)c1ccccc1 [benzoic-acid] | 99 | 101 | 95.9 | 98.7 | 98.7 | 99.4 | 101 | 96.8 | 99.2 | 92.6 | 101 | 95.6 | 104 | 92.4 | 96.3 | 98.9 | 102 | 99.1 | 98.2 | 95.9 | 97.1 | 97.6 | 100 | 97.7 | 102 | > 10 | > 10 | > 10 | > 10 | > 10 | 0 | 0 | 0 | 0 | 0
8 | O=C1S/C(=C\c2ccc(OCc3cccc(B(O)O)c3)cc2)C(=O)N1Cc1ccc(F)cc1 [HA-130] | 93.4 | 96 | 97 | 97.6 | 92.8 | 95.2 | 110 | 99.6 | 105 | 93.7 | 102 | 98.7 | 94.8 | 101 | 103 | 95.6 | 97.5 | 94.7 | 98.7 | 90.6 | 95.5 | 97.2 | 103 | 91.9 | 93.4 | > 10 | > 10 | > 10 | > 10 | > 10 | 0 | 0 | 0 | 0 | 0
9 | Cc1occc(=O)c1[O-].Cc1occc(=O)c1[O-].[O]=[V+2] [bis(maltolato)oxovanadium(IV)] | 101 | 96 | 95.4 | 95.4 | 90.4 | 100 | 103 | 98 | 92.4 | 86.3 | 110 | 104 | 100 | 108 | 93 | 98.4 | 91.3 | 102 | 94.5 | 88.5 | 94 | 98.2 | 92.7 | 105 | 103 | > 10 | > 10 | > 10 | > 10 | > 10 | 0 | 0.3 | 0 | 0 | 0
10 | C#C[C@]1(O)CC[C@H]2[C@@H]3CCC4=CC(=O)CC[C@@H]4[C@H]3C(=C)C[C@@]21CC [etonogestrel] | 87.3 | 75.4 | 98.7 | 81.7 | 104 | 92.7 | 95.1 | 104 | 97.6 | 102 | 95.4 | 97.2 | 94.1 | 90 | 104 | 93.8 | 95.1 | 93.8 | 97.1 | 103 | 98.2 | 84.7 | 95.6 | 85.2 | 104 | > 10 | > 10 | > 10 | > 10 | > 10 | 0.6 | 0 | 0 | 0 | 0
11 | Cc1cc(C)c(NC(=O)C2CC3CCC2C3)c(C)c1 (stereo not given) [ML-213] | 107 | 82.4 | 93.7 | 98.4 | 99.8 | 105 | 96.5 | 92 | 106 | 95.3 | 103 | 104 | 99.9 | 104 | 101 | 105 | 100 | 99.8 | 103 | 104 | 93.3 | 98.4 | 96.3 | 90.3 | 100 | > 10 | > 10 | > 10 | > 10 | > 10 | 0 | 0 | 0 | 0 | 0
12 | O=c1[nH]c2ccccc2n1CCCN1CCN(C(c2ccccc2)c2ccccc2)CC1 [oxatomide] | 117 | 98.6 | 99.1 | 112 | 83.7 | 107 | 96.1 | 105 | 99.2 | 101 | 97.7 | 104 | 114 | 81.7 | 92.2 | 100 | 102 | 94.1 | 97.1 | 106 | 106 | 93.1 | 99.9 | 91.7 | 95.6 | > 10 | > 10 | > 10 | > 10 | > 10 | 0.1 | 0 | 1.9 | 0 | 0
13 | Cc1cc(C)c(S(=O)(=O)Nc2ccccc2C(F)(F)F)c(C)c1 [o-3M3FBS] | 94.2 | 99.4 | 98.3 | 97.7 | 103 | 98.9 | 99.5 | 89.4 | 100 | 93.7 | 102 | 109 | 95.6 | 94.9 | 99.4 | 96.8 | 99.8 | 97.8 | 95.6 | 96.5 | 95.8 | 98.4 | 94.3 | 88.3 | 97.3 | > 10 | > 10 | > 10 | > 10 | > 10 | 0 | 0 | 0 | 0 | 0
